# Data from patent US6774131B1, “Remedies for endothelin-induced diseases” (Yamanouchi Pharmaceutical Co., Ltd., priority 2000, dated 2004).
# How the values were obtained:
# [1] = system: mouse formalin-induced pain model; test: ET-1-induced enhancement of pain responses in mouse formalin-induced pain model; format: in vivo
# Method: Suppressive effects of Compound 1 to the enhancement of pain responses induced by ET-1 in mouse formalin-induced pain model
# Male ICR mice (age of 5 weeks; Nippon SLC) were used in these experiments.
# The mice were placed in a cage for observation, to acclimate the mice to the environment for 5 minutes or longer; then, physiological saline of 20 μl was subcutaneously injected to the mouse left hind paws, while 0.7% formalin-containing physiological saline of 20 μl was subcutaneously injected to the mouse right hind paws. The duration of licking and biting reactions emerging immediately thereafter was counted every 5 minutes, for 40 minutes. After the termination of the counting, both the ankles were amputated and weighed. The reaction time immediately after formalin injection to 5 minutes later was defined as first phase; and the 30 minutes reaction time from 10 minutes after injection until 40 minutes later was defined in total as second phase, which were used as the indices of pain. Additionally, the edema calculated on the basis of the right foot weight minus the left foot weight (in mg) was used as an index of inflammatory reaction. Additionally, in all cases the licking reaction time was counted between 10:00 and 18:00.
# 0.7% formalin-containing physiological saline containing ET-1 at doses of 3, 10 and 30 pmol/paw was subcutaneously injected in the right hind paws to examine the action of ET-1 to enhance formalin-induced pain and edema.
# Compound 1 (0.3 to 3 mg/kg) was orally administered at a dose of 1 ml/100 g. Sixty minutes after oral administration, 0.7% formalin-containing physiological saline containing ET-1 (10 pmol/paw) was subcutaneously injected in the right hind paws, to examine the effect of the Compound 1 on the ET-1-induced enhancements of formalin-induced pain and edema.
# The results are shown in the form of mean±standard error. The significant difference between two groups was calculated the p-value by Students unpaired t-test. The significant difference between groups was analyzed by one-way analysis of variance, to calculate the p-values by the Dunnett's multiple range test. The p-value below 5% was defined as statistically significant.
# [2] = system: MC3T3-E1, mouse osteoblast-like cells; test: ET-1-induced DNA synthesis ([3H]-thymidine incorporation) in MC3T3-E1; format: cell-based
# Method: (§1) MC3T3-E1, mouse osteoblast-like cells, was used in these experiments (Journal of Cell Biology,96(1),191-198,1983).
# As DNA synthesis level, the incorporation of [^3H]-labeled thymidine was assayed. The cells were seeded at a density of 1.5×10^4 cells/well in a 96-well plate using 0.2% FCS culture medium and cultured for 2 days. Subsequently, vehicle or ET-1 was added to the plate and cultured for 24 hours. Continuously, [^3H-methyl]-thymidine was added at 0.5 μCi/well to the culture and pulse-labeling performed for 6 hours. Continuously, SDS solution to a final concentration of 0.2% was added for solubilization of the cell, and after solubilization the radioactivity of [^3H-methyl]-thymidine used for DNA synthesis was counted with a liquid scintillation counter. As a control, the count of a culture to which the vehicle was added was defined 100%, thus the percentage increase of DNA synthesis was calculated. […]
# (§2) The results are shown in the form of mean±standard error. The significant difference between groups was analyzed by one-way analysis of variance, to calculate the p-values by the Dunnett's multiple range test. […] At each experiment, the EC50 value of ET-1 and the IC50 value of the Compound 1 were calculated by the Logistic regression analysis.
# [3] = system: MC3T3-E1, mouse osteoblast-like cells; test: ET-1-induced increase of intracellular Ca2+ concentration in MC3T3-E1; format: cell-based
# Method: as §1
# The cell was cultured in a cell disk (of a 13.5-mm diameter) until the cell reached confluency; thereafter, the cell was then cultured in the absence of serum, for about 12 hours or longer and used for this experiment. Fura2-AM (4 μM) was added to the cell in the Hank's balanced salt solution (HBSS) (140 mM NaCl, 4 MM KCl, 1 mM K2HPO4, 1 mM MgCl2, 1 mM CaCl2, 10 mM glucose and 20 mM Hepes, pH-7.4) and incubated at 37° C. for one hour. The cell disk was fixed in a quartz cell placing therein HBSS; the quartz cell was fixed in an intracellular Ca^2+ assay unit (CAF-110). […] Intracellular Ca^2+ concentration was estimated by measuring and detecting the ratio of fluorescence intensities at 500 nm with excitation wave lengths of 340/380 nm and calculating intracellular Ca^2+ concentration using designated formula (J.Biol.Chem.,260,3440-3450,1985). […]
# as §2
# [4] = system: PPC-1, hormone-refractory human prostate cancer cells; test: ET-1-induced cell growth (cell number, alamar blue) of PPC-1; format: cell-based; details: for Cell growth (%): control = 100
# Method: PPC-1, hormone-refractory human prostate cancer cells, was used in these experiments(International Journal of Cancer,44,898-903,1989).
# Cell number was counted by using a reagent solution of a alamar blue. The cells were seeded at 2×10^4 cells/well in a 24-well plate, after adhesion, the culture media were exchanged to culture media with no FCS-added, and further cultured for another 24 hours. Thereafter, vehicle or ET-1 (10^−11 to 10^−6 M) was added, and cultured for 96 hours. The final volume of the culture medium was 500 μl. Alamar blue of 50 μl was added to the culture, and incubated for 4 hours. After reaction, 100 μl portions collected from the individual wells of the 24-well plate were then transferred to a 96-well plate, and measured the absorbance (at a wave length of 405 nm and a reference wave length of 650 nm) with a plate reader. As a control, the count of a culture to which the vehicle was added was defined 100%, thus the percentage increase of cell number was calculated. The inhibitory effect of the compound was examined by adding the Compound 1 to a final concentration of 10^−9 to 10^−5 M, 30 minutes prior to the addition of ET-1 at 10^−7 M.
# At the experiment, the culture medium was exchanged to a culture medium to which ET-1 was contained, 48 hours after stimulation, because the degradation of ET-1 was possible.
# [5] = 0.3, 1 and 3 mg/kg p.o., 60 min before ET-1 10 pmol/paw
"IC50 ([2]; ET-1 10^−10 M, read-out: IC50 of ET-1-induced increase in [3H]-thymidine incorporation) [nM]",IC50 ([3]; ET-1 10^−8 M) [nM],"EC50 ([2]; ET-1 10^−13 to 10^−6 M, read-out: EC50 of increase of [3H]-thymidine incorporation (DNA synthesis)) [nM]",EC50 ([3]; ET-1 10^−12 to 10^−6 M) [nM],Compound,"suppression of ET-1-induced enhancement of formalin-induced edema [1, 5]","suppression of ET-1-induced enhancement of formalin-induced pain, first phase [1, 5]","suppression of ET-1-induced enhancement of formalin-induced pain, second phase [1, 5]","Cell growth (%) ([4]; Compound 1 10^−5 M with ET-1 10^−7 M, n = 7)","Cell growth (%) ([4]; Compound 1 10^−6 M with ET-1 10^−7 M, n = 7)",concentration from which ET-1-induced cell growth was inhibited ([4]; ET-1 10^−7 M),"ET-1-induced enhancement of formalin-induced edema ([1]; ET-1 3, 10 and 30 pmol/paw with 0.7% formalin s.c. in hind paw)","ET-1-induced enhancement of formalin-induced pain, first phase ([1]; ET-1 3, 10 and 30 pmol/paw with 0.7% formalin s.c. in hind paw, 0-5 min)","ET-1-induced enhancement of formalin-induced pain, second phase ([1]; ET-1 3, 10 and 30 pmol/paw with 0.7% formalin s.c. in hind paw, 10-40 min)",concentration from which ET-1-induced cell growth was observed [4],"Cell growth (%) ([4]; ET-1 10^−7 M, 96 h, n = 7 (Table 2))","Cell growth (%) ([4]; ET-1 10^−7 M, Compound 1 0 (Table 3), n = 7)","Cell growth (%) ([4]; ET-1 10^−8 M, 96 h, n = 7)","Cell growth (%) ([4]; ET-1 10^−9 M, 96 h, n = 7)","Cell growth (%) ([4]; ET-1 10^−10 M, 96 h, n = 7)","Cell growth (%) ([4]; ET-1 10^−11 M, 96 h, n = 7)"
11.5,10.2,,,"COc1ccccc1Oc1c(NS(=O)(=O)C=Cc2ccccc2)nc(-c2ncccn2)nc1OC.[K] [Compound 1, N-[6-methoxy-5-(2-methoxyphenoxy)-2-(2-pyrimidinyl)-4-pyrimidinyl]-2-phenylethenesulfoneamide•potassium salt]",significantly suppressed,significantly suppressed,significantly suppressed,98.1,99.2,≥ 10^−6 M,,,,,,,,,,
,,0.00984,7.39,"ET-1: endothelin; induces pain in humans and experimental animals; used as stimulus of pain, Ca2+ increase and cell growth [reference compound]",,,,,,,significantly enhanced,significantly enhanced,significantly enhanced,≥ 10^−11 M,119.3,110.5,115.3,124.0,122.3,119.6
